Test results: patent publication US20260098072A1, “METHODS OF STIMULATING APPETITE AND/OR INCREASING BODY WEIGHT USING NON-NATURALLY OCCURRING MELANOCORTIN RECEPTOR ANTAGONIST ANALOGS” (Endevica Bio, Inc., priority 2022, published 2026)
pIC50: −log10 of the molar value. Values joined by “and” are separate entries in the source; they are usually repeats but may differ in a detail not shown here. Equal values may be shown once. Where a name gives a salt, the structure may show the parent alone. Positions of bridges follow the written chain, without caps; N, C: chain ends. Non-standard residues stand in square brackets, D forms with d. Residues, ends and D or L forms follow the SMILES beside them. d2Nal = N[C@H](Cc1ccc2ccccc2c1)C(=O)O; Hyp = O=C(O)[C@@H]1C[C@@H](O)CN1; Nle = CCCC[C@H](N)C(=O)O

What was measured:
human MC3R = molecular target: T1, human MC3R (Homo sapiens, UniProt P41968); experiment: cAMP accumulation assay (HTRF), antagonist activity at MC3R; assay type: cell-based; conditions: for Emax / pIC50: HEK293/CRE-luc/MC3R; for Emax: 0.1 nM to 1,000 nM, read-out: Max Activation %; for Hill Coefficient / Top (%): dose-response fit, MC3R; for pIC50: estimated from dose-response curve
T1 construct: expressed in transfected cells; host or cells: HEK293/CRE-luc/MC3R
Description: (§1) The antagonist activity of exemplary non-naturally occurring melanocortin analogs (SEQ ID NOs: 3, 4, 6, 9-11, 14, 15, and 291-309) at the melanocortin 3 receptor (MC3R) and melanocortin 4 (MC4R) receptor was measured via cAMP accumulation assay, according to the following procedure.
(§2) Recombinant cell lines shown in Table 1 were stimulated with melanocortin receptor antagonists and evaluated for cyclic adenosine monophosphate (cAMP) levels as a measurement of receptor activation. cAMP levels were quantified using Homogeneous Time-Resolved Fluorescence (HTRF). The stimulation and CAMP measurement were performed sequentially. First, the compound stimulated the G-protein coupled receptor (GPCR) which then induced downstream signaling, which was measured soon after. Cell lines and stimulated receptors used are detailed in Table 1.
(§3) Twenty-seven exemplary synthetic peptides were tested for antagonist activity at the human MC3R and MC4R at concentrations ranging from 0.1 nM to 1,000 nM. After stimulation, the level of cyclic adenosine monophosphate (CAMP) in each well was quantified via Homogenous Time-Resolved Fluorescence (HTRF) as a measurement of receptor activity. Dose-response curves and estimated IC50 values were then obtained for each antagonist peptide against the MC3R and MC4R. HS024 (TFA) and was used as a positive control for the antagonist activity of MC3R (FIG. 1A) and MC4R (FIG. 1B).

human MC4R = molecular target: T2, human MC4R (Homo sapiens, UniProt P32245); experiment: cAMP accumulation assay (HTRF), antagonist activity at MC4R; assay type: cell-based; conditions: for Emax: HEK293, HEK293/MC4R/CRE-GFP, 0.1 nM to 1,000 nM, read-out: Max Activation %; for Hill Coefficient / Top (%): dose-response fit, MC4R; for pIC50: HEK293/MC4R/CRE-GFP, estimated from dose-response curve
T2 construct: expressed in transfected cells; host or cells: HEK293/MC4R/CRE-GFP
Description: as §1, §2, §3

T2 sequence (P32245 whole entry): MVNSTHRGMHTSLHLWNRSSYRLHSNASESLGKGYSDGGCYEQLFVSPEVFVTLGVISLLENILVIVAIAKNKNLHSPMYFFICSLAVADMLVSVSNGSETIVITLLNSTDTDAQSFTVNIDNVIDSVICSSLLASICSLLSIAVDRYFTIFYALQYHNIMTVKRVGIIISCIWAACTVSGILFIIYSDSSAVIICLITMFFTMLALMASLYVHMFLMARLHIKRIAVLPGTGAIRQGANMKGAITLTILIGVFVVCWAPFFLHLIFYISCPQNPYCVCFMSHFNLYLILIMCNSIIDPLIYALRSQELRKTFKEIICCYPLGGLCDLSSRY
T1 sequence (P41968 whole entry): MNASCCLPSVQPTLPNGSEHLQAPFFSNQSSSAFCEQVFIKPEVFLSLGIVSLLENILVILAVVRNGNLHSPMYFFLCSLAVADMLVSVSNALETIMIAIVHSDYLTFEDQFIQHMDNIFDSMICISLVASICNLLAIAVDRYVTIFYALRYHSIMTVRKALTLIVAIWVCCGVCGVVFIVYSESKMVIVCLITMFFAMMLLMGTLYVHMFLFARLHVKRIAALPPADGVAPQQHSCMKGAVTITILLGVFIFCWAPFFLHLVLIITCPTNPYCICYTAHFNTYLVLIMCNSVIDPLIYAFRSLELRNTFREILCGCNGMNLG

Compound | Emax (human MC3R) [%] | Hill Coefficient (human MC3R) | Top (%) (human MC3R) | Emax (human MC4R) [%] | Hill Coefficient (human MC4R) | Top (%) (human MC4R) | pIC50 (human MC3R) | pIC50 (human MC4R)
CCCC[C@@H]1NC(=O)[C@@H](NC(C)=O)CSSC[C@@H](C(N)=O)NC(=O)CNC(=O)[C@H](Cc2c[nH]c3ccccc23)NC(=O)[C@H](CCCNC(=N)N)NC(=O)[C@@H](Cc2ccc3ccccc3c2)NC(=O)[C@H](Cc2c[nH]cn2)NC(=O)[C@H](CCCNC(=N)N)NC1=O [HS024(TFA), reference compound] (Ac-C[Nle]RH[d2Nal]RWGC-NH2; disulfide 1-9 (inferred); N-terminus and C-terminus assumed) | 102 | 0.93 | 117.07 | 104 | 0.61 | 113.93% |  | 
CCCC[C@H](NC(C)=O)C(=O)N[C@@H](CC(=O)O)C(=O)N1CCC[C@H]1C(=O)N[C@H](Cc1ccc2ccccc2c1)C(=O)N[C@@H](CCCNC(=N)N)C(=O)N[C@@H](Cc1c[nH]c2ccccc12)C(=O)N[C@@H](CCCCN)C(=O)N[C@@H](C(=O)N1CCC[C@@H]1C(N)=O)C(C)C [Peptide A1, Ac-Nle-Asp-Pro-Dnal(2′)-Arg-Trp-Lys-Dval-Dpro-NH2] (Ac-[Nle]DP[d2Nal]RWK[dV][dP]-NH2) | 84.4 | 0.55 | 1002.64 |  | 0.43 and 0.32 | 1195.94% and 652.03% | > 5.00 | > 5.00
Ac-Nle-Pro-Dnal(2′)-Arg-Trp-Dval-Dpro-NH2 (Ac-[Nle]P[d2Nal]RW[dV][dP]-NH2; SMILES CCCC[C@H](NC(C)=O)C(=O)N1CCC[C@H]1C(=O)N[C@H](Cc1ccc2ccccc2c1)C(=O)N[C@@H](CCCNC(=N)N)C(=O)N[C@@H](Cc1c[nH]c2ccccc12)C(=O)N[C@@H](C(=O)N1CCC[C@@H]1C(N)=O)C(C)C) [Peptide A2] |  | 0.82 | 9.73 |  |  |  |  | 

The remaining lines, values ahead:

Emax (human MC3R) [%] | Hill Coefficient (human MC3R) | Top (%) (human MC3R) | Emax (human MC4R) [%] | Hill Coefficient (human MC4R) | Top (%) (human MC4R) | pIC50 (human MC3R) | pIC50 (human MC4R) | Compound
74.5 | 0.73 | 4952.72 | 49.4 | 0.55 | 2739.03% | > 5.00 | < 5.00 | CCCC[C@H](NC(C)=O)C(=O)N[C@H]1CC(=O)NCCCC[C@@H](C(=O)N[C@@H](C(=O)N2CCC[C@@H]2C(N)=O)C(C)C)NC(=O)[C@H](Cc2c[nH]c3ccccc23)NC(=O)[C@H](CCCNC(=N)N)NC(=O)[C@@H](Cc2ccc3ccccc3c2)NC(=O)[C@H](Cc2c[nH]cn2)NC(=O)[C@@H]2CCCN2C1=O [Peptide D1, Ac-Nle-c(Asp-Pro-His-Dnal(2′)-Arg-Trp-Lys)-Dval-Dpro-NH2] (Ac-[Nle]DPH[d2Nal]RWK[dV][dP]-NH2; lactam 2-8)
111 | 0.98 | 113.20 | 117 | 0.80 | 119.03% | > 5.00 and 7.06 | > 5.00 and 7.39 | CCCC[C@H](NC(C)=O)C(=O)N[C@H]1CC(=O)NCCCC[C@@H](C(=O)N[C@@H](C(=O)N2CCC[C@@H]2C(N)=O)C(C)C)NC(=O)[C@H](Cc2c[nH]c3ccccc23)NC(=O)[C@H](CCCNC(=N)N)NC(=O)[C@@H](Cc2ccc3ccccc3c2)NC(=O)[C@@H]2C[C@@H](O)CN2C1=O [Peptide D3, Ac-Nle-c(Asp-Hyp-Dnal(2′)-Arg-Trp-Lys)-Dval-Dpro-NH2] (Ac-[Nle]D[Hyp][d2Nal]RWK[dV][dP]-NH2; lactam 2-7)
50.1 | 0.65 | 2741.58 | 21 | 0.92 | 9354.39% | < 5.00 |  | CCCC[C@H](NC(C)=O)C(=O)N[C@H]1CC(=O)NCCCC[C@@H](C(=O)N[C@@H](C(=O)N2CCC[C@@H]2C(N)=O)C(C)C)NC(=O)[C@@H]2CCCN2C(=O)[C@H](Cc2c[nH]c3ccccc23)NC(=O)[C@H](CCCNC(=N)N)NC(=O)[C@@H](Cc2ccc3ccccc3c2)NC(=O)[C@@H]2C[C@@H](O)CN2C1=O [Peptide D4, Ac-Nle-c(Asp-Hyp-Dnal(2′)-Arg-Trp-Pro-Lys)-Dval-Dpro-NH2] (Ac-[Nle]D[Hyp][d2Nal]RWPK[dV][dP]-NH2; lactam 2-8)
